ChEMBL document CHEMBL4819058, “An amide mimic of desTHPdactylolide: Total synthesis and antiproliferative evaluation” (Bioorg Med Chem Lett, 2021)

Assays:
[1] = test system: LNCaP; assay: Antiproliferative activity against androgen-insensitive human LNCaP cells assessed as reduction in cell viability incubated for 3 days by WST-1 assay; type: functional, cell-based; details: 72 h
[2] = test system: PC-3; assay: Antiproliferative activity against androgen-insensitive human PC-3 cells assessed as reduction in cell viability incubated for 3 days by WST-1 assay; type: functional, cell-based; details: PC-3, 72 h
[3] = test system: PC-3; assay: Antiproliferative activity against Docetaxel-resistant human PC-3 cells assessed as reduction in cell viability incubated for 3 days by WST-1 assay; type: functional, cell-based; details: PC-3, 72 h
[4] = test system: DU-145; assay: Antiproliferative activity against Docetaxel-resistant human DU-145 cells assessed as reduction in cell viability incubated for 3 days by WST-1 assay; type: functional, cell-based; details: DU-145, 72 h
[5] = test system: DU-145; assay: Antiproliferative activity against androgen-insensitive human DU-145 cells assessed as reduction in cell viability incubated for 3 days by WST-1 assay; type: functional, cell-based; details: DU-145, 72 h
[6] = Resistance index, ratio of IC50 for antiproliferative activity against human DU145/DTX cells to IC50 for antiproliferative activity against human DU145 cells; type: functional
[7] = Resistance index, ratio of IC50 for antiproliferative activity against human PC-3/DTX cells to IC50 for antiproliferative activity against human PC-3 cells; type: functional

| Structure (SMILES) | IC50 [1] [µM] | IC50 [2] [µM] | IC50 [3] [µM] | IC50 [4] [µM] | IC50 [5] [µM] | Ratio IC50 [6] | Ratio IC50 [7] |
| --- | --- | --- | --- | --- | --- | --- | --- |
| C/C1=C/C=C/C(=O)N[C@@H](CO)C/C(C)=C/COCC/C=C/C(=O)C1 | > 12.5 | > 12.5 | > 12.5 | > 12.5 | 11.1 | – | – |
| C/C1=C/C=C/C(=O)N[C@@H](C=O)C/C(C)=C/COCC/C=C/C(=O)C1 | 10.9 | 9.76 | 10.2 | 10.2 | 8.48 | 1.2 | 1.05 |
| COc1ccc(COC[C@H]2C/C(C)=C/COCC/C=C/C(=O)C/C(C)=C\C=C\C(=O)N2)cc1 | 6.26 | 7.7 | 4.4 | 7.36 | 4.87 | 1.51 | 0.57 |
| CC(=O)O[C@@]12CO[C@@H]1C[C@H](O)[C@@]1(C)C(=O)[C@H](O)C3=C(C)[C@@H](OC(=O)[C@H](O)[C@@H](NC(=O)OC(C)(C)C)c4ccccc4)C[C@@](O)([C@@H](OC(=O)c4ccccc4)[C@H]21)C3(C)C [DOCETAXEL ANHYDROUS] | – | – | 2.34 | – | – | – | – |
